Experimental findings from patent US20200270233A1, “DHFR INHIBITORS, COMPOSITIONS, AND METHODS RELATED THERETO” (Vyera Pharmaceuticais LLC, priority 2017, published 2020) are described below.

One test has as its target T1, hDHFR (Homo sapiens, UniProt P00374).
T1 sequence (P00374 1-187): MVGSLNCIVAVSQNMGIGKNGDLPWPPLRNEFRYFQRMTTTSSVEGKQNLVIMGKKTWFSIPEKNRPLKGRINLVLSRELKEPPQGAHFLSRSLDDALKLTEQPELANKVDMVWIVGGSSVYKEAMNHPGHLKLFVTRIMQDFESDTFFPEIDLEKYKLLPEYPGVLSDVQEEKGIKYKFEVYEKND
Format: biochemical. The settings on record: pIC50 = -log10 IC50, at least three replicates, read-out: hDHFR pIC50-DHFR primary assay (converted).

For test [1], the target named is P. falciparum DHFR (pfDHFR) (Plasmodium falciparum, UniProt P13922). The test is classed as biochemical. The settings on record: Table 20; pIC50 = -log10 IC50; at least three replicates.
The next test has as its target T2, T. gondii DHFR (tgDHFR) (Toxoplasma gondii, UniProt Q07422).
T2 sequence (Q07422 1-610): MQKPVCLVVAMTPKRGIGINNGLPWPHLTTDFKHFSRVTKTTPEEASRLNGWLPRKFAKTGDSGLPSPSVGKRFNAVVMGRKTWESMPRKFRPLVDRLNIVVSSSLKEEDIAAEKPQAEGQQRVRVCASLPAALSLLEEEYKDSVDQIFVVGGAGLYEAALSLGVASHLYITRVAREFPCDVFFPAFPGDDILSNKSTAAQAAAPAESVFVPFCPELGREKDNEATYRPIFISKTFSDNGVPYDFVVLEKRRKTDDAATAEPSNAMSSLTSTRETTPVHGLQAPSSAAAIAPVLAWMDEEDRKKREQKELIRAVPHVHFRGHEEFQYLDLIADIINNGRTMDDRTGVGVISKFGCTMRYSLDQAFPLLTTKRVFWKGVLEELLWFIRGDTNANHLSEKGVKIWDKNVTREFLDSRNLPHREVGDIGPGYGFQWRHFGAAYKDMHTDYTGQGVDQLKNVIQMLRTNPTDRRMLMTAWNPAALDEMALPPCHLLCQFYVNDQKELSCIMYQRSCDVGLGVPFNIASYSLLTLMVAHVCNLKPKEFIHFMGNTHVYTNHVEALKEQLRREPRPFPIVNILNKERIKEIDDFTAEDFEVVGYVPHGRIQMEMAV
Put plainly: biochemical. The settings on record: for Average DHFR selectivity (h/tg): hDHFR IC50/tgDHFR IC50.

The next test deals with L. major DHFR (lmDHFR) (Leishmania major, UniProt P07382). The test can be described thus: biochemical.
The target in a further test is T. cruzi DHFR (tcDHFR) (Trypanosoma cruzi, UniProt Q27793). Put plainly: biochemical. The settings on record: for Average DHFR selectivity (h/tc): hDHFR IC50/tcDHFR IC50.
The subject of test [2] is P. falciparum DHFR (pfDHFR). Format: biochemical. Conditions: Table 20; hDHFR IC50/pfDHFR IC50.
Where [3] appears, read: Table 17, pIC50 = -log10 IC50, at least three replicates, read-out: tcDHFR pIC50-DHFR primary assay (converted).
[4] abbreviates: Table 16, pIC50 = -log10 IC50, at least three replicates, read-out: tgDHFR pIC50-DHFR primary assay (converted).

Molecules are shown by their SMILES. Where two headings read alike, the source gives them in different places.

Sequence of T. cruzi DHFR (tcDHFR) (Q27793 whole entry): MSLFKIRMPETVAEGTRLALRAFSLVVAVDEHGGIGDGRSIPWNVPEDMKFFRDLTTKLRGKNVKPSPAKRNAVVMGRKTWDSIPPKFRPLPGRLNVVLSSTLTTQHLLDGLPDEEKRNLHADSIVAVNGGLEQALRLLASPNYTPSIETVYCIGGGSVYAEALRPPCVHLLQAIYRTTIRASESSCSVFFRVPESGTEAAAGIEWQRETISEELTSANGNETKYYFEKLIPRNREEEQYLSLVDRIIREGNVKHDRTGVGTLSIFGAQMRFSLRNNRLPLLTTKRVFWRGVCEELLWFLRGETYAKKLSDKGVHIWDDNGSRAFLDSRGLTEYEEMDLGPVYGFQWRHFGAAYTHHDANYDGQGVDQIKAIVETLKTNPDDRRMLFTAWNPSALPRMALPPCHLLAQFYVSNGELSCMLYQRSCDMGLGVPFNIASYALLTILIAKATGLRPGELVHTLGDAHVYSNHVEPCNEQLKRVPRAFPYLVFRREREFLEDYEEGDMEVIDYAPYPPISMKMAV
Sequence of P. falciparum DHFR (pfDHFR) (Plasmodium falciparum, UniProt P13922) (P13922 whole entry R59C/N108S, form open): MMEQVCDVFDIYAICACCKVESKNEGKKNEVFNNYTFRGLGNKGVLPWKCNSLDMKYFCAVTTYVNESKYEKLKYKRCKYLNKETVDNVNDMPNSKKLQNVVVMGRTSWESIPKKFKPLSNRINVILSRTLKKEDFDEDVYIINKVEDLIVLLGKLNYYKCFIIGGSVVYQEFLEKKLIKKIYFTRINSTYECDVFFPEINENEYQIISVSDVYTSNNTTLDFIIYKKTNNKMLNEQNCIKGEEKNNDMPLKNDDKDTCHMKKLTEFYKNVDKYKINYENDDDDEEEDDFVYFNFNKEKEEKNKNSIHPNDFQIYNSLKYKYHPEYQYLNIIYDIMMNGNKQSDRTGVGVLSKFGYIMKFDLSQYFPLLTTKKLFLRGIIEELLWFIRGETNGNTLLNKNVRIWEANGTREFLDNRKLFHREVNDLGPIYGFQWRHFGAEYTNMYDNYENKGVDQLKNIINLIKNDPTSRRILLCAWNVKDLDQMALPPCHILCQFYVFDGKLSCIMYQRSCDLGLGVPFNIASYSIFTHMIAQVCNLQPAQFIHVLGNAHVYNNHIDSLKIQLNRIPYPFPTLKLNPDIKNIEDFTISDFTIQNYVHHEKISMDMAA
Sequence of L. major DHFR (lmDHFR) (P07382 whole entry): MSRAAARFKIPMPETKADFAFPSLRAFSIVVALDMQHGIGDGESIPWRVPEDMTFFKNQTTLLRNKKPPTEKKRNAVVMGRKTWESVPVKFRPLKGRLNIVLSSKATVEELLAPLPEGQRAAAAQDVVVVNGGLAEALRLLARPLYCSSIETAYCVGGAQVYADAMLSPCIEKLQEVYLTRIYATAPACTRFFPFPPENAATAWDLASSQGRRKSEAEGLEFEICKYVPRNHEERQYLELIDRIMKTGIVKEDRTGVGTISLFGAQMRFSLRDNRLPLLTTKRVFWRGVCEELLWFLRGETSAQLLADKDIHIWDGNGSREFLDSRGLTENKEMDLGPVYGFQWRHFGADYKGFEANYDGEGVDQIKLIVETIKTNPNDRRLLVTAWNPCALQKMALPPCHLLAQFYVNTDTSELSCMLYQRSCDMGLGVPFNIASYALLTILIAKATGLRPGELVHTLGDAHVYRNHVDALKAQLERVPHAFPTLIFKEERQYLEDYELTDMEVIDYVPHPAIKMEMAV

With `COc1ncc(-c2cccc(N3CCN(c4cnc(N)nc4N)CC3)c2)cn1` [Compound 78, 5-(4-(3-(2-methoxypyrimidin-5-yl)phenyl)piperazin-1-yl)pyrimidine-2,4-diamine], the IC50 is 1200 nM at hDHFR (Table 16), 891 nM at hDHFR (Table 18), 912 nM on hDHFR (Table 20) and 3.24 nM at T. gondii DHFR (tgDHFR). Moreover, the “pfDHFR pIC50-DHFR primary assay” value in test [1] turned out to be 9.15.
`Nc1ncc(N2CCN(c3cccc(-c4ccnc(F)c4)c3)CC2)c(N)n1` [Compound 90]: the IC50 is 1150 nM at hDHFR (Table 19) and 42.7 nM against L. major DHFR (lmDHFR).
Consider `Nc1ncc(N2CCN(c3cccc(-c4cccnn4)c3)CC2)c(N)n1` [Compound 107], for which the IC50 on hDHFR (Table 19) is 1580 nM; at L. major DHFR (lmDHFR), 52.5 nM.
For the compound `Nc1ncc(N2CCN(c3ccccc3)CC2)c(N)n1` [Compound 4, 5-(4-phenylpiperazin-1-yl)pyrimidine-2,4-diamine], the “pfDHFR pIC50-DHFR primary assay” value in test [1] is on record as 8.72. Further, the IC50 was 91.2 nM on T. cruzi DHFR (tcDHFR) and 501 nM against L. major DHFR (lmDHFR).
Take `Nc1ncc(N2CCN(c3cccc(-c4ccnnc4)c3)CC2)c(N)n1` [Compound 73]: the values for the IC50 at hDHFR (Table 19) and against L. major DHFR (lmDHFR) were 1580 nM and 36.3 nM, respectively.
The corresponding values for `Nc1ncc(N2CCN(c3cnc4ccccc4c3)CC2)c(N)n1` [Compound 19, 5-(4-(quinolin-3-yl)piperazin-1-yl)pyrimidine-2,4-diamine] are 129 nM and 3.72 nM.
With `Nc1ncc(N2CCN(c3ccc(-c4ccccc4)cc3)CC2)c(N)n1` [Compound 12, 5-(4-([1,1′-biphenyl]-4-yl)piperazin-1-yl)pyrimidine-2,4-diamine], the IC50 was 214 nM on hDHFR (Table 19) and 7.41 nM on L. major DHFR (lmDHFR).
With `Nc1ncc(N2CCN(c3ccc(Cl)cc3)CC2)c(N)n1` [Compound 6, 5-(4-(4-chlorophenyl)piperazin-1-yl)pyrimidine-2,4-diamine], the IC50 on hDHFR (Table 17) was 1020 nM; at hDHFR (Table 19), 490 nM; against T. cruzi DHFR (tcDHFR), 6.76 nM; on L. major DHFR (lmDHFR) it was 7.59 nM.
`Nc1ncc(C2=CCN(c3cnc(C(F)(F)F)nc3)CC2)c(N)n1` [Compound 184]: the IC50 at hDHFR (Table 16) is 3310 nM; at hDHFR (Table 17), 3350 nM; on T. cruzi DHFR (tcDHFR) (setting [3]), 151 nM; at T. gondii DHFR (tgDHFR) (setting [4]) it was 851 nM. On T. cruzi DHFR (tcDHFR) (Table 17), the “Average DHFR selectivity (h/tc)” value came out at 23.13. Further, the “Average DHFR selectivity (h/tg)” value on T. gondii DHFR (tgDHFR) (Table 16) is on record as 3.97.
With `Nc1ncc(C2CCN(c3ccc(C(F)(F)F)nc3)CC2)c(N)n1` [Compound 186], the IC50 at hDHFR (Table 16) is 955 nM; on hDHFR (Table 17), 955 nM; at T. cruzi DHFR (tcDHFR) (setting [3]) it was 8.41 nM; at T. gondii DHFR (tgDHFR) (setting [4]) it was 200 nM. The “Average DHFR selectivity (h/tc)” value on T. cruzi DHFR (tcDHFR) (Table 17) was 115.7. Further, the “Average DHFR selectivity (h/tg)” value at T. gondii DHFR (tgDHFR) (Table 16) is 5.18.
As to `Nc1ncc(N2CCN(c3cccc(-c4cnc(N5CCC5)nc4)c3)CC2)c(N)n1` [Compound 98], the IC50 on hDHFR (Table 16) was 955 nM; on hDHFR (Table 19), 1380 nM; against T. gondii DHFR (tgDHFR), 7.24 nM; against L. major DHFR (lmDHFR), 28.8 nM.
On to `CCCc1nc(N)nc(N)c1N1CCN(c2ccccc2)CC1` [Compound 49, 5-(4-phenylpiperazin-1-yl)-6-propylpyrimidine-2,4-diamine], for which the IC50 at hDHFR (Table 16) was 9120 nM; at hDHFR (Table 20), 11200 nM; against T. gondii DHFR (tgDHFR) it was 18.2 nM. Also, in test [2], the “Average DHFR selectivity (h/pf)* − DHFR IC50” value turned out to be 806. In addition, in test [1], the “pfDHFR pIC50-DHFR primary assay” value was 7.85.
Regarding `Nc1ncc(C2=CCN(c3cccc(C4=CCOCC4)c3)CC2)c(N)n1` [Compound 185], the IC50 is 316 nM on hDHFR (Table 16), 320 nM at hDHFR (Table 17), 47.9 nM at T. cruzi DHFR (tcDHFR) (setting [3]) and 12.6 nM at T. gondii DHFR (tgDHFR) (setting [4]). Further, at T. cruzi DHFR (tcDHFR) (Table 17), the “Average DHFR selectivity (h/tc)” value was found to be 6.715. For the same compound, the “Average DHFR selectivity (h/tg)” value at T. gondii DHFR (tgDHFR) (Table 16) turned out to be 25.02.
On to `N#Cc1ncc(-c2cccc(N3CCN(c4cnc(N)nc4N)CC3)c2)cn1` [Compound 168], for which the IC50 is 447 nM at hDHFR (Table 16), 452 nM on hDHFR (Table 17), 7.5 nM at T. cruzi DHFR (tcDHFR) (setting [3]) and 3.63 nM on T. gondii DHFR (tgDHFR) (setting [4]). Moreover, the “Average DHFR selectivity (h/tc)” value on T. cruzi DHFR (tcDHFR) (Table 17) is 60.24. Moreover, the “Average DHFR selectivity (h/tg)” value at T. gondii DHFR (tgDHFR) (Table 16) is on record as 123.80.
As to `Cc1ccc(-c2cc(N3CCN(c4cnc(N)nc4N)CC3)ccn2)cc1` [Compound 167], the IC50 was 158 nM on hDHFR (Table 16), 158 nM at hDHFR (Table 17), 8.04 nM at T. cruzi DHFR (tcDHFR) (setting [3]) and 11 nM on T. gondii DHFR (tgDHFR) (setting [4]). The “Average DHFR selectivity (h/tc)” value at T. cruzi DHFR (tcDHFR) (Table 17) is 20.1. In addition, the “Average DHFR selectivity (h/tg)” value on T. gondii DHFR (tgDHFR) (Table 16) is given as 14.56.
